Measurements reported in patent US20180305332A1, “Bispiperidinyl Derivatives as Liver X Receptor Beta Agonists, Compositions, and Their Use” (Merck Sharp & Dohme Corp., priority 2015, published 2018).

Key:
[1] = target: T1, GST tagged LXRalpha LBD (ligand binding domain) (Homo sapiens, UniProt Q13133); experiment: LanthaScreen TR-FRET Liver X Receptor Coactivator Assay, LXR alpha-LBD; type: biochemical; conditions: relative to reference T0901317; for EC50: Inflection Point (potency), co-activator recruitment, read-out: LXR alpha IP; for Emax: activity at max dose (efficacy), read-out: LXR alpha act @ max dose (%)
T1 construct: purchased Invitrogen pv4655
T1 sequence (Q13133 209-447 limits assumed): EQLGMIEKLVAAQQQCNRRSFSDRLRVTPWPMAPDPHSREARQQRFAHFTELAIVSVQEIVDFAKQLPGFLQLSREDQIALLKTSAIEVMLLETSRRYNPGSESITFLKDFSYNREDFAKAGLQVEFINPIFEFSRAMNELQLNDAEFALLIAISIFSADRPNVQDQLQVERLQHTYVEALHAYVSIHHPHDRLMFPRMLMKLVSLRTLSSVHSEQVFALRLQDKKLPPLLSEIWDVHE
Procedure, shortened: (§1)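 Values are inflection points (potency) and Emax (efficacy) expressed against reference agonist T0901317. Coactivator recruitment is measured by TR-FRET between terbium anti-GST antibody on the LBD and a fluorescein-labelled peptide, following room-temperature incubation.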

[2] = target: T2, GST tagged LXRbeta LBD (ligand binding domain) (Homo sapiens, UniProt P55055); experiment: LanthaScreen TR-FRET Liver X Receptor Coactivator Assay, LXR beta-LBD; type: biochemical; conditions: relative to reference T0901317; for EC50: Inflection Point (potency), co-activator recruitment, read-out: LXR beta IP; for Emax: activity at max dose (efficacy), read-out: LXR beta act @ max dose (%)
T2 construct: purchased Invitrogen pv4658.pps
T2 sequence (P55055 222-460 limits assumed): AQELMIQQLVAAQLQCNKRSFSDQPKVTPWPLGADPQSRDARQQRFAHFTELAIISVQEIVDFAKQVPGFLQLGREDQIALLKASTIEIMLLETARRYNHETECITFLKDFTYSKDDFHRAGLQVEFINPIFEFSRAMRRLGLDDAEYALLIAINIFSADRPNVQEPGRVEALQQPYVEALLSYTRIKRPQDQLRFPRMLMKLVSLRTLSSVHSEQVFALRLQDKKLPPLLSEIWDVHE
Procedure, shortened: as §1

EC50 [1] [nM] | Emax [1] [%] | EC50 [2] [nM] | Emax [2] [%] | SMILES
2060 | 33 | 341 | 99 | CNC(=O)c1ccc(N2CCC(C3CCN(C(=O)[C@](O)(c4ccccc4)C(F)(F)F)CC3)CC2)cc1Cl [Example E-62, 2-chloro-N-methyl-4-{1′-[(2R)-3,3,3-trifluoro-2-hydroxy-2-phenylpropanoyl]-4,4′-bipiperidin-1-yl}benzamide]
359 | 51 | 21 | 86 | O=C(c1ccc(N2CCC(C3CCN(C(=O)[C@](O)(c4ccccc4)C(F)(F)F)CC3)CC2)cc1Cl)N1CCC[C@H]1CO [Example E-63, (2R)-3-[1′-(3-chloro-4-{[(2S)-2-(hydroxymethyl)pyrrolidin-1-yl]carbonyl}phenyl)-4,4′-bipiperidin-1-yl]-1,1,1-trifluoro-3-oxo-2-phenylpropan-2-ol]
913 | 54 | 26 | 146 | CN(CCO)C(=O)c1ccc(N2CCC(C3CCN(C(=O)[C@](O)(c4ccccc4)C(F)(F)C(F)(F)F)CC3)CC2)cc1Cl [Example E-64, 2-chloro-N-(2-hydroxyethyl)-N-methyl-4-{1′-[(2R)-3,3,4,4,4-pentafluoro-2-hydroxy-2-phenylbutanoyl]-4,4′-bipiperidin-1-yl}benzamide]
635 | 64 | 17 | 137 | CC(C)(C)OC(=O)NC1CN(C(=O)c2ccc(N3CCC(C4CCN(C(=O)[C@](O)(c5ccccc5)C(F)(F)C(F)(F)F)CC4)CC3)cc2Cl)C1 [Example E-65, tert-butyl {1-[(2-chloro-4-{1′-[(2R)-3,3,4,4,4-pentafluoro-2-hydroxy-2-phenylbutanoyl]-4,4′-bipiperidin-1-yl}phenyl)carbonyl]azetidin-3-yl}carbamate]
211 | 72 | 12 | 126 | O=C(c1ccc(N2CCC(C3CCN(C(=O)[C@](O)(c4ccccc4)C(F)(F)C(F)(F)F)CC3)CC2)cc1Cl)N1CCC[C@H]1CO [Example E-66, (2R)-1-[1′-(3-chloro-4-{[(2S)-2-(hydroxymethyl)pyrrolidin-1-yl]carbonyl}phenyl)-4,4′-bipiperidin-1-yl]-3,3,4,4,4-pentafluoro-1-oxo-2-phenylbutan-2-ol]
2100 | 30 | 171 | 106 | O=C(c1ccc(N2CCC(C3CCN(C(=O)[C@](O)(c4ccccc4)C(F)(F)F)CC3)CC2)cc1Cl)N(CCF)CCF [Example E-67, 2-chloro-N,N-bis(2-fluoroethyl)-4-{1′-[(2R)-3,3,3-trifluoro-2-hydroxy-2-phenylpropanoyl]-4,4′-bipiperidin-1-yl}benzamide]
996 | 56 | 322 | 69 | CC(C)(C)OC(=O)N1CCC(C2CCN(c3ccc(C(C)(C)O)c(Cl)c3)CC2)CC1 [Example E-69, tert-butyl 1′-[3-chloro-4-(1-hydroxy-1-methylethyl)phenyl]-4,4′-bipiperidine-1-carboxylate]

SMILES | EC50 [1] [nM] | Emax [1] [%] | EC50 [2] [nM] | Emax [2] [%]
CC(C)(C)OC(=O)NC1CN(C(=O)c2ccc(N3CCC(C4CCN(C(=O)OC(C)(C)C)CC4)CC3)cc2Cl)C1 [Example E-68, tert-butyl 1′-[4-({3-[(tert-butoxycarbonyl)amino]azetidin-1-yl}carbonyl)-3-chlorophenyl]-4,4′-bipiperidine-1-carboxylate] | 367 | 64 | 29 | 92
